# Test results published in ChEMBL document CHEMBL1148995, “Antitumor agents from bohemic acid complex, VI. Schaunardimycin” (J Nat Prod, 1984).
# Tests used:
# [1] = test system: Mus musculus; test: Toxicity in mouse L1210 cells implanted CDF1 mouse assessed as average weight gain at 0.4 mg/kg, ip qd for 1 to 5 days; assay type: organism-based; parameters: dose 0.4 mg/kg, route intraperitoneal; details: in vivo
# [2] = test system: Mus musculus; test: Toxicity in mouse L1210 cells implanted CDF1 mouse assessed as survivors on day 5 at 6.4 mg/kg, ip single dose on day 1; assay type: organism-based; parameters: dose 6.4 mg/kg, route intraperitoneal; details: in vivo
# [3] = test system: Mus musculus; test: Toxicity in mouse L1210 cells implanted CDF1 mouse assessed as average weight gain at 3.2 mg/kg, ip single dose on day 1; assay type: organism-based; parameters: dose 3.2 mg/kg, route intraperitoneal; details: in vivo
# [4] = test system: Mus musculus; test: Toxicity in mouse L1210 cells implanted CDF1 mouse assessed as average weight gain at 1.6 mg/kg, ip qd for 1 to 5 days; assay type: organism-based; parameters: dose 1.6 mg/kg, route intraperitoneal; details: in vivo
# [5] = test system: L1210; test: Antitumor activity against mouse L1210 cells implanted in CDF1 mouse assessed as median survival time at 0.2 mg/kg, ip single dose on day 1; assay type: functional; details: route intraperitoneal
# [6] = test system: Mus musculus; test: Toxicity in mouse L1210 cells implanted CDF1 mouse assessed as survivors on day 5 at 1.6 mg/kg, ip single dose on day 1; assay type: organism-based; parameters: dose 1.6 mg/kg, route intraperitoneal; details: in vivo
# [7] = test system: L1210; test: Antitumor activity against mouse L1210 cells implanted in CDF1 mouse at 3.2 mg/kg, ip single dose on day 1 relative to control; assay type: functional; details: route intraperitoneal
# [8] = test system: Mus musculus; test: Toxicity in mouse L1210 cells implanted CDF1 mouse assessed as average weight gain at 0.4 mg/kg, ip single dose on day 1; assay type: organism-based; parameters: dose 0.4 mg/kg, route intraperitoneal; details: in vivo
# [9] = test system: Mus musculus; test: Toxicity in mouse L1210 cells implanted CDF1 mouse assessed as survivors on day 5 at 12.8 mg/kg, ip single dose on day 1; assay type: organism-based; parameters: dose 12.8 mg/kg, route intraperitoneal; details: in vivo
# [10] = test system: Mus musculus; test: Toxicity in mouse L1210 cells implanted CDF1 mouse assessed as survivors on day 5 at 0.8 mg/kg, ip qd for 1 to 5 days; assay type: organism-based; parameters: dose 0.8 mg/kg, route intraperitoneal; details: in vivo
# [11] = test system: Mus musculus; test: Toxicity in mouse L1210 cells implanted CDF1 mouse assessed as average weight gain at 1.6 mg/kg, ip single dose on day 1; assay type: organism-based; parameters: dose 1.6 mg/kg, route intraperitoneal; details: in vivo
# [12] = test system: L1210; test: Antitumor activity against mouse L1210 cells implanted in CDF1 mouse at 0.2 mg/kg, ip qd for 1 to 5 days relative to control; assay type: functional; details: route intraperitoneal
# [13] = test system: L1210; test: Antitumor activity against mouse L1210 cells implanted in CDF1 mouse assessed as median survival time at 6.4 mg/kg, ip single dose on day 1; assay type: functional; details: route intraperitoneal
# [14] = test system: L1210; test: Antitumor activity against mouse L1210 cells implanted in CDF1 mouse at 1.6 mg/kg, ip single dose on day 1 relative to control; assay type: functional; details: route intraperitoneal
# [15] = test system: L1210; test: Antitumor activity against mouse L1210 cells implanted in CDF1 mouse at 6.4 mg/kg, ip single dose on day 1 relative to control; assay type: functional; details: route intraperitoneal
# [16] = test system: Mus musculus; test: Toxicity in mouse L1210 cells implanted CDF1 mouse assessed as average weight gain at 0.8 mg/kg, ip single dose on day 1; assay type: organism-based; parameters: dose 0.8 mg/kg, route intraperitoneal; details: in vivo
# [17] = test system: L1210; test: Antitumor activity against mouse L1210 cells implanted in CDF1 mouse assessed as median survival time at 0.4 mg/kg, ip single dose on day 1; assay type: functional; details: route intraperitoneal
# [18] = test system: Mus musculus; test: Toxicity in mouse L1210 cells implanted CDF1 mouse assessed as average weight gain at 3.2 mg/kg, ip qd for 1 to 5 days; assay type: organism-based; parameters: dose 3.2 mg/kg, route intraperitoneal; details: in vivo
# [19] = test system: Mus musculus; test: Toxicity in mouse L1210 cells implanted CDF1 mouse assessed as survivors on day 5 at 0.4 mg/kg, ip single dose on day 1; assay type: organism-based; parameters: dose 0.4 mg/kg, route intraperitoneal; details: in vivo
# [20] = test system: L1210; test: Antitumor activity against mouse L1210 cells implanted in CDF1 mouse assessed as median survival time at 0.2 mg/kg, ip qd for 1 to 5 days; assay type: functional; details: route intraperitoneal
# [21] = test system: L1210; test: Antitumor activity against mouse L1210 cells implanted in CDF1 mouse assessed as median survival time at 3.2 mg/kg, ip qd for 1 to 5 days; assay type: functional; details: route intraperitoneal
# [22] = test system: Mus musculus; test: Toxicity in mouse L1210 cells implanted CDF1 mouse assessed as survivors on day 5 at 0.4 mg/kg, ip qd for 1 to 5 days; assay type: organism-based; parameters: dose 0.4 mg/kg, route intraperitoneal; details: in vivo
# [23] = test system: L1210; test: Antitumor activity against mouse L1210 cells implanted in CDF1 mouse assessed as median survival time at 0.8 mg/kg, ip single dose on day 1; assay type: functional; details: route intraperitoneal
# [24] = test system: Mus musculus; test: Toxicity in mouse L1210 cells implanted CDF1 mouse assessed as survivors on day 5 at 0.8 mg/kg, ip single dose on day 1; assay type: organism-based; parameters: dose 0.8 mg/kg, route intraperitoneal; details: in vivo
# [25] = test system: L1210; test: Antitumor activity against mouse L1210 cells implanted in CDF1 mouse assessed as median survival time at 1.6 mg/kg, ip qd for 1 to 5 days; assay type: functional; details: route intraperitoneal
# [26] = test system: L1210; test: Antitumor activity against mouse L1210 cells implanted in CDF1 mouse at 6.4 mg/kg, ip qd for 1 to 5 days relative to control; assay type: functional; details: route intraperitoneal
# [27] = test system: Mus musculus; test: Toxicity in mouse L1210 cells implanted CDF1 mouse assessed as average weight gain at 0.8 mg/kg, ip qd for 1 to 5 days; assay type: organism-based; parameters: dose 0.8 mg/kg, route intraperitoneal; details: in vivo
# [28] = test system: Mus musculus; test: Toxicity in mouse L1210 cells implanted CDF1 mouse assessed as average weight gain at 12.8 mg/kg, ip single dose on day 1; assay type: organism-based; parameters: dose 12.8 mg/kg, route intraperitoneal; details: in vivo
# [29] = test system: Mus musculus; test: Toxicity in mouse L1210 cells implanted CDF1 mouse assessed as average weight gain at 0.2 mg/kg, ip single dose on day 1; assay type: organism-based; parameters: dose 0.2 mg/kg, route intraperitoneal; details: in vivo
# [30] = test system: L1210; test: Antitumor activity against mouse L1210 cells implanted in CDF1 mouse assessed as median survival time at 6.4 mg/kg, ip qd for 1 to 5 days; assay type: functional; details: route intraperitoneal
# [31] = test system: L1210; test: Antitumor activity against mouse L1210 cells implanted in CDF1 mouse at 12.8 mg/kg, ip single dose on day 1 relative to control; assay type: functional; details: route intraperitoneal
# [32] = test system: L1210; test: Antitumor activity against mouse L1210 cells implanted in CDF1 mouse assessed as median survival time at 0.8 mg/kg, ip qd for 1 to 5 days; assay type: functional; details: route intraperitoneal
# [33] = test system: Mus musculus; test: Toxicity in mouse L1210 cells implanted CDF1 mouse assessed as survivors on day 5 at 1.6 mg/kg, ip qd for 1 to 5 days; assay type: organism-based; parameters: dose 1.6 mg/kg, route intraperitoneal; details: in vivo
# [34] = test system: L1210; test: Antitumor activity against mouse L1210 cells implanted in CDF1 mouse at 0.8 mg/kg, ip qd for 1 to 5 days relative to control; assay type: functional; details: route intraperitoneal
# [35] = test system: L1210; test: Antitumor activity against mouse L1210 cells implanted in CDF1 mouse at 0.4 mg/kg, ip single dose on day 1 relative to control; assay type: functional; details: route intraperitoneal
# [36] = test system: Mus musculus; test: Toxicity in mouse L1210 cells implanted CDF1 mouse assessed as average weight gain at 6.4 mg/kg, ip qd for 1 to 5 days; assay type: organism-based; parameters: dose 6.4 mg/kg, route intraperitoneal; details: in vivo
# [37] = test system: L1210; test: Antitumor activity against mouse L1210 cells implanted in CDF1 mouse assessed as median survival time at 0.4 mg/kg, ip qd for 1 to 5 days; assay type: functional; details: route intraperitoneal
# [38] = test system: Mus musculus; test: Toxicity in mouse L1210 cells implanted CDF1 mouse assessed as survivors on day 5 at 0.2 mg/kg, ip qd for 1 to 5 days; assay type: organism-based; parameters: dose 0.2 mg/kg, route intraperitoneal; details: in vivo
# [39] = test system: L1210; test: Antitumor activity against mouse L1210 cells implanted in CDF1 mouse assessed as median survival time at 1.6 mg/kg, ip single dose on day 1; assay type: functional; details: route intraperitoneal
# [40] = test system: L1210; test: Antitumor activity against mouse L1210 cells implanted in CDF1 mouse assessed as median survival time at 3.2 mg/kg, ip single dose on day 1; assay type: functional; details: route intraperitoneal
# [41] = test system: L1210; test: Antitumor activity against mouse L1210 cells implanted in CDF1 mouse at 0.2 mg/kg, ip single dose on day 1 relative to control; assay type: functional; details: route intraperitoneal
# [42] = test system: Mus musculus; test: Toxicity in mouse L1210 cells implanted CDF1 mouse assessed as survivors on day 5 at 3.2 mg/kg, ip qd for 1 to 5 days; assay type: organism-based; parameters: dose 3.2 mg/kg, route intraperitoneal; details: in vivo
# [43] = test system: L1210; test: Antitumor activity against mouse L1210 cells implanted in CDF1 mouse at 3.2 mg/kg, ip qd for 1 to 5 days relative to control; assay type: functional; details: route intraperitoneal
# [44] = test system: L1210; test: Antitumor activity against mouse L1210 cells implanted in CDF1 mouse at 0.4 mg/kg, ip qd for 1 to 5 days relative to control; assay type: functional; details: route intraperitoneal
# [45] = test system: L1210; test: Antitumor activity against mouse L1210 cells implanted in CDF1 mouse assessed as median survival time at 12.8 mg/kg, ip single dose on day 1; assay type: functional; details: route intraperitoneal
# [46] = test system: Mus musculus; test: Toxicity in mouse L1210 cells implanted CDF1 mouse assessed as survivors on day 5 at 3.2 mg/kg, ip single dose on day 1; assay type: organism-based; parameters: dose 3.2 mg/kg, route intraperitoneal; details: in vivo
# [47] = test system: Mus musculus; test: Toxicity in mouse L1210 cells implanted CDF1 mouse assessed as average weight gain at 6.4 mg/kg, ip single dose on day 1; assay type: organism-based; parameters: dose 6.4 mg/kg, route intraperitoneal; details: in vivo
# [48] = test system: Mus musculus; test: Toxicity in mouse L1210 cells implanted CDF1 mouse assessed as average weight gain at 0.2 mg/kg, ip qd for 1 to 5 days; assay type: organism-based; parameters: dose 0.2 mg/kg, route intraperitoneal; details: in vivo
# [49] = test system: Mus musculus; test: Toxicity in mouse L1210 cells implanted CDF1 mouse assessed as median survival time at 25.6 mg/kg, ip single dose on day 1; assay type: organism-based; parameters: dose 25.6 mg/kg, route intraperitoneal; details: in vivo
# [50] = test system: L1210; test: Antitumor activity against mouse L1210 cells implanted in CDF1 mouse at 1.6 mg/kg, ip qd for 1 to 5 days relative to control; assay type: functional; details: route intraperitoneal
# [51] = test system: L1210; test: Antitumor activity against mouse L1210 cells implanted in CDF1 mouse at 0.8 mg/kg, ip single dose on day 1 relative to control; assay type: functional; details: route intraperitoneal
compound,measurement,setting,value
CC[C@@]1(O)C[C@H](O[C@H]2C[C@H](N(C)C)[C@H](O[C@H]3C[C@H](O)[C@H](O)[C@H](C)O3)[C@H](C)O2)c2c(cc3c(c2O)C(=O)c2c(O)ccc(O)c2C3=O)[C@H]1C(=O)OC [MUSETTAMYCIN],weight gain,[1],2.3 g
same,Activity,[2],Active
same,Activity,[3],0.8 g
same,weight gain,[4],0.3 g
same,MST,[5],6 days
same,Activity,[6],Active
same,T/C,[7],133%
same,weight gain,[8],2.7 g
same,Activity,[9],Active
same,Activity,[10],Active
same,weight gain,[11],0.7 g
same,T/C,[12],117%
same,MST,[13],9.5 days
same,T/C,[14],133%
same,T/C,[15],158%
same,weight gain,[16],2.6 g
same,MST,[17],6.5 days
same,Activity,[18],-1.2 g
same,Activity,[19],Active
same,MST,[20],6.5 days
same,MST,[21],10 days
same,Activity,[22],Active
same,MST,[23],7 days
same,Activity,[24],Active
same,MST,[25],9.5 days
same,T/C,[26],100%
same,weight gain,[27],1.4 g
same,Activity,[28],-2.3 g
same,weight gain,[29],2.7 g
same,MST,[30],6 days
same,T/C,[31],167%
same,MST,[32],8 days
same,Activity,[33],Active
same,T/C,[34],133%
same,T/C,[35],108%
same,Activity,[36],-1.9 g
same,MST,[37],7 days
same,Activity,[38],Active
same,MST,[39],8 days
same,MST,[40],8 days
same,T/C,[41],100%
same,Activity,[42],Active
same,T/C,[43],167%
same,T/C,[44],117%
same,MST,[45],10 days
same,Activity,[46],Active
same,Activity,[47],0.3 g
same,weight gain,[48],2.8 g
same,Activity,[49],Toxic
same,T/C,[50],158%
same,T/C,[51],117%
